Two molecules from US10925858B2, “S-nitrosoglutathione (GSNO) and GSNO reductase inhibitors for use in therapy” (MUSC FOUNDATION FOR RESEARCH DEVELOPMENT, priority 2017, dated 2021) can be followed below.

Assay [1] has as its system IFN-γ, IL-4, IL-17, IL-10. The assay can be described thus: ELISA of CD4+ T cell subset specific cytokines from spleen derived cells of EAE mice after MOG restimulation. The conditions noted are these: N6022, MOG restimulation. The assay is classed as in vivo, C57BL/6 mice. The method, then:
Female C57BL/6 mice of 8-12 weeks of age, purchased from Jackson Laboratory, were provided with food and water ad libitum and were kept in pathogen free animal care facility of Medical University of South Carolina (MUSC) throughout the study. All procedures were conducted in accordance with accepted standards of humane care as approved by the Institutional Animal Care and Use Committee (Approved number: AR #1644). EAE was induced as described previously (Nath et al., 2009). Briefly, mice were immunized subcutaneously in the flank regions with MOG35-55 peptide (MOG; 200 μg; Peptide International) emulsified (1:1) in 100 ul complete Freund's adjuvant (CFA) on day 0 and day 7. Additionally, 300 ng of Pertussis toxin (Sigma-Aldrich, St. Louis, Mo.) was given on day 0 and day 2 by i.p. injection. Pertussis toxin used as per the standardized protocol reported by us and other investigators for the induction of EAE (Nath et al., 2009). Similarly, healthy control group received subcutaneous injection of PBS and CFA emulsion on day 0 and day 7. Clinical signs of EAE were scored by examiners blinded to experimental treatments using the following scale: 0=no clinical signs of disease; 1=piloerection and sluggish; 2=limp tail (ataxia); 2.5=ataxia with partial hind limb paralysis; 3=full paralysis of hind limb; 3.5=full paralysis of hind limb with paralysis of one fore limb; 4=full paralysis of two limbs; 4.5=moribund stage; 5=death. […] The drug treatments were continued till the termination of the study (day 41 post immunization). EAE animals without drug treatment received PBS. Likewise, healthy controls received vehicle.
Fluorescence flow cytometry analysis for each subset of CD4+ T cells (TH1, TH2, TH17, CD4+CD25+ FOXP3+ Treg, and CD4+CD25+ FOXP3− Treg) were performed based on our previous report with modification (Nath et al., 2004). Briefly, control mice, EAE mice. EAE mice treated with GSNO. […] Following the preparation of single cell suspension, red blood cells were lysed with Pharma lyse buffer (BD Pharmingen™) and the remaining spleen cells were washed with RPMI 1640. The isolated CD4+ T cells were then resuspended with complete RPMI-media in 12-well plates (5×10^6 cells' 2 ml per well) containing MOG peptide (25 μg/ml) for 48 hrs. […] The cell pellets were washed with cell staining solution (ebioscience, Waltham, Mass. USA) and stained with fluorescence labeled antibody specific to IFN-γ for TH1. […] The cells were counted and analyzed using Beackman Coulter instrument (Beckman Coulter, Inc., Brea, Calif., USA).
ELISA assay was performed for analysis of CD4+ T cell subset specific cytokines released from cultured cells or spinal cord tissues. […] The equal amounts of proteins were analyzed for ELISA for IFN-γ. […]
(In general: In an ELISA, binding on a coated surface is turned into a signal by an enzyme label.)

In assay [2] the test system is tight junction proteins (ZO-1, Occludin, Claudin-5). The assay can be described thus: Immunofluorescence of tight junction proteins in isolated microvessels of diabetic mice. The assay is classed as in vivo. The protocol:
Male laca mice weighing between 28-32 g were procured from the Central Animal House, Panjab University, Chandigarh. The animals were acclimatized and were fed with standard pellet diet and water ad libitum. The experimental protocols were approved by the Institutional Ethics Committee and were conducted according to Indian National Science Academy (INSA) guidelines for the use and care of experimental animals. The animals were divided into four groups: (i) Control animals received phosphate buffered saline (PBS) throughout the study; (ii) Control+GSNO animals were administered with GSNO 100 μg/kg body weight orally, dissolved in PBS after every 24 h for 8 weeks; (iii) Diabetic animals were injected with STZ at a dose of 40 mg/kg body weight intraperitoneally for 5 days dissolved in 0.1 mol/L citrate buffer, pH 4.5 and Diabetic+GSNO mice were administered GSNO 100 μg/kg body weight orally dissolved in PBS after every 24 h for 8 weeks after the induction of diabetes. Animals were assessed weekly for development of diabetic encephalopathy in terms of memory deficits. All experimental procedures were done on mice at the end of study.
The microvessels were isolated by the method described by Brooks et al., (2005). Brain tissue was homogenized in microisolation buffer (103 mM NaCl, 4.7 mM KCl, 2.5 mM CaCb, 1.2 mM KH2PO4, 1.2 mM MgSO4, 15 mM HEPES, 2.5 mM NaHCO3, 10 mM D-glucose, 1 mM sodium pyruvate and 10 g/L dextran (64,000 mol wt), pH 7.4) and equal amount of 26% (w/v) dextran was added. The sample was then centrifuged at 5600 g for 10 min and pellets obtained were resuspended in microisolation buffer. Then the suspension was filtered through 70 μm filter (BD Biosciences, Gurgaon, India). […]
Isolated microvessels were resuspended in PBS and allowed to attach to polylysine-coated slides for 30 min at 37° C. and fixed at 95° C. for 10 min. […] After placement and sealing of coverslips, photographs were taken with 40× objective on a Nikon TE-300 fluorescence microscope with a fluorescein filter (Schulze & Firth 1993).

[3] abbreviates: microvessels of GSNO supplemented diabetic animals vs untreated diabetic group.

Regarding `Cc1cc(C(N)=O)ccc1-n1c(CCC(=O)O)ccc1-c1ccc(-n2ccnc2)cc1` [N6022, reference compound], in assay [1], the “IL-10 production from spleen derived cells” value was “enhanced”, the “production of IFN-γ from spleen derived cells” value is “decreased” and the “production of IL-17 from spleen derived cells” value is “decreased”. Moreover, the “IL-4 production from spleen derived cells” value in assay [1] (to the control levels) was “fully restored”.

With `N[C@@H](CCC(=O)N[C@@H](CSN=O)C(=O)NCC(=O)O)C(=O)O` [GSNO, S-nitrosoglutathione], the claudin-5 fluorescent intensity result in assay [2] (GSNO treated diabetic animals) is recorded as “No change”. In assay [2] (setting [3]), the “fluorescent intensity for ZO-1” value is “increased fluorescent intensity” and the “fluorescent intensity for occludin” value was “increased fluorescent intensity”.
